Columns and labels:
[1] = test system: TNF-α; test: TNF-α level in BALF of the COPD model (ELISA); format: in vivo, C57BL/6N mice; conditions: vs COPD-induced group; for TNF-α inhibition rate (%): BALF
Procedure: (§1) Cytokines were measured in the cell supernatant obtained in <Test Example 6-3> above by the following method. Specifically, the levels of IL-6 (R & D System, USA) and TNF-α (BD Bioscience, USA) in the separated BALF were measured by enzyme-linked immuno-sorbent assay (ELISA). Each cytokine analysis was carried out according to the manufacturer's test method.

[2] = test system: MUC5AC promoters; test: MUC5AC promoter luciferase reporter assay in H292 cells; format: cell-based, human; conditions: Table 7, MUC5AC promoter luciferase reporter, 10 μM, TNF-α 20 ng/mL
From the text: The degree of activation of luciferase was confirmed using a One-glow Luciferase Assay System (Promega).
As a result, as shown in the following Table 7, the activity of the MUC5AC promoters increased in the group treated with TNF-α.

[3] = test system: reactive oxygen species; test: Production of active oxygen species in BALF of the COPD model (DCF-DA); format: in vivo, C57BL/6N mice
Procedure: Production of active oxygen species in the bronchoalveolar lavage fluid obtained in <Test Example 6-3> above was confirmed by the following method.
Specifically, the separated BALF (200 μL) was treated to the final concentration of 20 μM of DCF-DA (dihydrodichlorofluorescein diacetate, Sigma-Aldrich, USA), followed by culturing for 30 minutes and measurement using Fluorescence (Molecular Device, USA). The inhibition rate was calculated by Equation 3 above.

[4] = test system: IL-6; test: IL-6 level in BALF of the COPD model (ELISA); format: in vivo, C57BL/6N mice; conditions: vs COPD-induced group; for IL-6 inhibition rate (%): BALF
Procedure: as §1

[5] = test system: H292 cells; test: Cytotoxicity (CCK-8 cell viability) of the compounds of Magnoliae flos in H292 cells; format: cell-based, human; conditions: 24 h, vs 0.2% DMSO control = 100%
Procedure: Then, 10 μl of the CCK-8 solution (Dojindo Laboratories, Japan) was mixed with 90 μl of the medium, and 100 μl thereof was added per well. After incubation for a minimum of 30 minutes to a maximum of 4 hours, the absorbance was measured at 570 nm. The cell viability was calculated according to the following Equation 2 with a negative control group treated with 0.2% DMSO as a reference of 100%.
Cell viability=(Compound treated OD 570 nm value)×100/(Negative control group OD 570 nm value) [Equation 2]

[6] = test system: MUC5AC protein; test: Inhibition of MUC5AC protein production (immunoassay) by the compounds; format: cell-based, human; conditions: for Inhibition rate (%): MUC5AC secretion; for Inhibition rate (%) / MUC5AC secretion (Relative amount to TNF-α treated group, %): TNF-α 20 ng/mL; for production of MUC5AC (in words): vs TNF-α treated group = 100%
Procedure: For immunoassay of the resulting MUC5AC, the supernatant (50 uL) recovered was dispensed on to a 96-well plate and dried in a thermostat set at 50° C. It was washed with PBS supplemented with 1% BSA and reacted with an MUC5AC antibody (abcam, USA) at room temperature for 1 hour. A secondary antibody was dispensed thereto for reaction for 1 hour. It was washed again and then reacted with a 3,3′,5,5′-tetramethylbenzidine peroxide solution for 20 minutes. After the reaction was stopped with a sulfuric acid solution, the degree of color development was measured at 450 nm.
As a result, as shown in the following Table 6, the amount of MUCSAC secretion increased in the group treated with TNF-α.

[7] = test system: inflammatory cells in the bronchoalveolar lavage fluid; test: Inflammatory cells in bronchoalveolar lavage fluid of the COPD mouse model (cigarette smoke + LPS); format: in vivo, C57BL/6N mice; conditions: BALF, vs COPD-induced group
Procedure: Six-week-old male SPF (specific pathogen-free) C57BL/6N mice (22 to 24 g) were supplied by Koatech (Korea). These animals were fed with a sufficient amount of solid feed (no antibiotics, Samyang Feed Co.) and water until the day of the experiment. They were allowed to adapt for 1 week in a light-dark cycle environment at a temperature of 22±2° C. and a humidity of 55±15%, and then subjected to the experiment.
The animal model was exposed to cigarette smoke to induce chronic obstructive pulmonary disease. 3R4F Kentuchy Reference Cigarettes as standard cigarettes for use to generate cigarette smoke were supplied by University of California (USA). The standard cigarettes contain 9.4 mg of tar, 11 mg of total particle matter (TPM), and 12 mg of carbon monoxide per 1 cigarette. The standard cigarettes were used after harmonization for 48 hours to 72 hours at a temperature of 22±1° C. and a humidity of 60±2%. Further, Cigarette Smoke Generator manufactured by Korea BioLink (Korea) was used for exposure to cigarette smoke. Cigarette smoke was inhaled for 1 hour (8 pcs/hour) for 7 days from 1 hour after oral administration of a sample. 10 μg of LPS (lipopolysaccharide) in PBS 50 μL was injected intranasally to each mouse on the 4th day of the experiment after the mouse was anesthetized with zoletyl 1 hour before the exposure to cigarette smoke. The smoking condition was 8 puffs per 1 standard cigarette (volume: 45 mL, duration: 2 seconds, and interval: 1 time/min).
The active fraction of Magnoliae flos (15, 30 mg/kg) and roflumilast (10 mg/kg) as therapeutic substances were dissolved in 0.5% sodium carboxymethyl cellulose and were orally administered 1 hour before the exposure to cigarette smoke.
The experimental groups were divided into (i) normal control (NC) group; (ii) cigarette smoke+LPS exposure group (COPD); (iii) experimental group administered with roflumilast (ROF) (10 mg/kg, p.o) 1 hour before the exposure to cigarette smoke+LPS; and (iv) experimental group administered with the active fraction of Magnoliae flos (15, 30 mg/kg, p.o; Magnoliae flos 15 and Magnoliae flos 30) 1 hour before the exposure to cigarette smoke+LPS. […] Then, they were administered in the same manner as above.
The bronchial alveolar lavage fluid was separated from the animal model treated with the active fraction and the compounds of Magnoliae flos in <Test Example 6-2> above in the following manner, and the number of inflammatory cells was measured.
Specifically, a mouse sonde was inserted into the bronchial tube, a 1 mL syringe containing 0.7 mL of DPBS (Dulbecco's Phosphate-Buffered Saline) was connected thereto, and DPBS was injected into the lung. The injected DPBS was recovered, and this procedure was repeated twice. The bronchoalveolar lavage fluid separated by DPBS was centrifuged at 1,500 rpm for 15 minutes to make a cell pellet. The supernatant was stored frozen at −70° C. for cytokine analysis. Each cell obtained was suspended in DPBS, attached to a slide glass using a cytospin centrifuge, and Diff-Quik stained. The number of inflammatory cells in each sample was counted through microscopic examination, and the inhibition rate was calculated according to the following Equation 3.
Inhibition rate=(Value of COPD-induced group−value of target substance administered group)×100/(Value of COPD-induced group) [Equation 3]

[8] = 15 mg/kg p.o., vs COPD-induced group
[9] = 30 mg/kg p.o., vs COPD-induced group

Row | SMILES | TNF-α inhibition rate (%) ([1]; 15 mg/kg p.o.) | TNF-α inhibition rate (%) ([1]; 30 mg/kg p.o.) | Inhibition rate (%) [2] [%] | Active oxygen inhibition rate (%) [3, 8] [%] | Active oxygen inhibition rate (%) [3, 9] [%] | IL-6 inhibition rate (%) ([4]; 15 mg/kg p.o.) | IL-6 inhibition rate (%) ([4]; 30 mg/kg p.o.) | Viability of H292 cells (%, average ± deviation) ([5]; 2.5 μM) [%] | Viability of H292 cells (%, average ± deviation) ([5]; 5 μM) [%] | Viability of H292 cells (%, average ± deviation) ([5]; 10 μM) [%] | Inhibition rate (%) ([6]; 2.5 μM) | Inhibition rate (%) ([6]; 5 μM) | Inhibition rate (%) ([6]; 10 μM) | production of MUC5AC (in words) [6] | Inhibition rate of inflammatory cell infiltration (%) Macrophage ([7]; 15 mg/kg p.o.) [%] | Inhibition rate of inflammatory cell infiltration (%) Neutrophil ([7]; 15 mg/kg p.o.) [%] | Inhibition rate of inflammatory cell infiltration (%) Total inflammatory cells ([7]; 15 mg/kg p.o.) [%] | Inhibition rate of inflammatory cell infiltration (%) Macrophage ([7]; 30 mg/kg p.o.) [%] | Inhibition rate of inflammatory cell infiltration (%) Neutrophil ([7]; 30 mg/kg p.o.) [%] | Inhibition rate of inflammatory cell infiltration (%) Total inflammatory cells ([7]; 30 mg/kg p.o.) [%] | other results
1 | COc1ccc([C@H]2OC[C@H]3[C@@H]2CO[C@@H]3c2ccc(OC)c(OC)c2)cc1OC [Compound S1, dimethylpinoresinol] | 25.0 ± 7.8 | 38.0 ± 4.1 | 55.74 | 17.9 ± 5.1 | 34.7 ± 3.2 | 56.2 ± 6.6 | 67.6 ± 6.6 | 121.27 ± 2.04 | 121.61 ± 3.75 | 118.76 ± 1.96 | 8.64 | 26.36 | 30.2 | inhibited in a manner depending on the concentrations | 12.8 ± 10.4 | 45.9 ± 3.4 | 42.2 ± 2.5 | 40.0 ± 5.4 | 54.5 ± 3.4 | 54.3 ± 3.5 | TNF-α secretion in the bronchoalveolar lavage fluid (in words) [1]: concentration-dependent inhibition; production of active oxygen species (in words) ([3]; 15 and 30 mg/kg, vs COPD-induced group): relatively higher inhibition rates in a manner depending on concentration; IL-6 in the bronchoalveolar lavage fluid (in words) [4]: concentration-dependent decrease; production of MUC5AC (in words) ([6]; listed as Formula 2): inhibited the production of MUC5AC in a manner depending on concentration; increase in inflammatory cells (in words) [7]: effectively inhibited
2 | COc1ccc([C@H]2OC[C@H]3[C@@H]2CO[C@@H]3c2cc(OC)c(OC)c(OC)c2)cc1OC [Compound S2, magnolin] | 29.2 ± 4.8 | 31.0 ± 7.2 | 55.2 | 21.8 ± 4.4 | 14.0 ± 8.3 | 64.9 ± 4.8 | 36.6 ± 8.9 | 121.81 ± 2.42 | 119.94 ± 2.81 | 118.37 ± 2.55 | 2.43 | 18.83 | 34.33 | inhibited in a manner depending on the concentrations | 21.6 ± 6.3 | 47.2 ± 3.6 | 44.7 ± 3.9 | 10.7 ± 9.8 | 31.0 ± 7.1 | 30.7 ± 5.3 | MUC5AC secretion (Relative amount to TNF-α treated group, %) [2]: 44.8 ± 7.33%; rate of inhibiting reactive oxygen compared with ROF drug control group (in words) ([3]; 30 mg/kg): higher rates of inhibiting reactive oxygen than that of the drug control group treated with ROF; Viability of H292 cells (%, average ± deviation) ([5]; 20 μM): 112.99 ± 4.16%; MUC5AC secretion (Relative amount to TNF-α treated group, %) ([6]; 2.5 μM): 97.57 ± 0.78%; MUC5AC secretion (Relative amount to TNF-α treated group, %) ([6]; 5 μM): 81.17 ± 0.82%; MUC5AC secretion (Relative amount to TNF-α treated group, %) ([6]; 10 μM): 65.67 ± 0.99%; production of MUC5AC (in words) ([6]; listed as Formula 3): inhibited the production of MUC5AC in a manner depending on concentration

Source: patent publication US10376553B2, “Pharmaceutical composition for preventing and treating chronic obstructive lung disease containing, as active ingredient, Magnoliae flos extract, fraction, or active fraction thereof” (KOREA RESEARCH INSTITUTE OF BIOSCIENCE AND BIOTECHNOLOGY, priority 2015, dated 2019)
